# Results from US6635432B1, “Peptide potentiation of acid-sensory ion channel in pain” (University of Iowa Research Foundation, priority 2000, dated 2003).
# Where no end group is shown, it is not given here.
# Experiments:
# Assay type in all cases: cell-based
# ASICα [1] = target: T1, ASICα (Homo sapiens, UniProt P78348); assay: Whole-cell patch-clamp of HEK-293T cells transfected with ASICα; parameters: expressed in transfected cells; conditions: HEK293 cells; amiloride 100 μM, FMRFamide 100 μM, pH 5
# T1 sequence (P78348 1-528): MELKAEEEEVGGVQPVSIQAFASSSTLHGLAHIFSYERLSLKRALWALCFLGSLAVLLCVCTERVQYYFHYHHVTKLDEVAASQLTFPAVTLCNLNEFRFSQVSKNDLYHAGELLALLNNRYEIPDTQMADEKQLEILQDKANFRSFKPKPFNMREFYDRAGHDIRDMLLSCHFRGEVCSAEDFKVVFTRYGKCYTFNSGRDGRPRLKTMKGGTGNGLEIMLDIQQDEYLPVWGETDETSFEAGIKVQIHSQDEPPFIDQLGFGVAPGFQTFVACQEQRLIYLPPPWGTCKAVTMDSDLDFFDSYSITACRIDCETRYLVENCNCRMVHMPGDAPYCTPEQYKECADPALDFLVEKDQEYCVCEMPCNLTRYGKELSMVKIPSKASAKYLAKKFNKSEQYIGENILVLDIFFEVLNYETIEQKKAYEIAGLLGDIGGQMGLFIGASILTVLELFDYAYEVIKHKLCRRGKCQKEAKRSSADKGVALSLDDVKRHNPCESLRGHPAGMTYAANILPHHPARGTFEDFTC
# Excerpt: Human ASICα was cloned from brain polyA RNA. Rat ASICβ and mouse DRASIC were cloned from DRG RNA. […] Constructs were cloned into pMT3 for expression.
# To identify transfected cells, pGreenlantern vector encoding green fluorescent protein (Gibco, Gaithersburg, Md.) was co-transfected with ASICα at a ratio of 1:6; transfected cells were identified using epifluorescence microscopy. Cells were studied 1-2 days after transfection.
# (§1) The pipette solution contained, in mM: 120 KCl, 10 NaCl, 2 MgCl2, 5 EGTA, 10 HEPES. Perfusion of cells with different solutions was done by placing the appropriate outlet in front of the cell. Data were recorded with an AXOPATCH 200 (Axon Instruments, Foster City, Calif.) and stored on a digital tape recorder. Digitization was executed by acquiring data at 400 Hz using pClamp6 (Axon Instruments, Foster City, Calif.).
# ASICα [2] = target: T1, ASICα; assay: Two-electrode voltage-clamp of Xenopus oocytes expressing ASICα; parameters: expressed in transfected cells; host or cells: Xenopus laevis oocytes (nuclear injection of pMT3 plasmid); conditions: for effect on H+-gated ASICα current (inactivation, sustained current): pH 5, agents 50 μM (A18Famide 25 μM), added prior to and during acidification
# Excerpt: (§2) Human ASICα was cloned from brain polyA RNA. Rat ASICβ and mouse DRASIC were cloned from DRG RNA. Human BNC1 was cloned as described in Price et al. (1996)(Price, M. P., Snyder, P. M., and Welsh, M. J. (1996). Cloning and expression of a novel human brain Na^+ channel. J Biol Chem 271, 7879-7882). Constructs were cloned into pMT3 for expression.
# (§3) Expression of the cDNA constructs in Xenopus oocytes was accomplished by injection of plasmid DNA into the nucleus of defolliculated albino Xenopus laevis oocytes (Nasco, Fort Atkinson, Wis.) as described previously (Adams, C. M., Snyder, P. M., Price, M. P., and Welsh, M. J. (1998). Protons activate brain Na^+ channel 1 by inducing a conformational change that exposes a residue associated with neurodegeneration. J Biol Chem 273, 30204-30207). Plasmids were injected at concentrations of 100 ng/μl for most experiments. Oocytes were incubated in modified Barth's solution at 18° C. for 12-26 hr after injection. Cells injected with DRASIC were allowed to incubate for 24-48 hr before analysis.
# Whole-cell currents in oocytes were measured using a two-electrode voltage-clamp as previously described (Adams, et al. (1998)). Oocytes were bathed in frog Ringers solution containing, in mM: 116 NaCl, LiCl or KCl, 0.4 CaCl2, MgCl2, 5 4-(2-hydroxyethyl)-1-piperazineethanesulfonic acid (HEPES), pH 7.4. Acidic solutions were buffered with 5 mM 2-(4-morpholino)-ethanesulfonic acid (MES) instead of HEPES. Membrane voltage was held at −60 mV unless otherwise noted. Most peptides and naloxone were obtained from Sigma Chemical Co. (St. Louis, Mont.) and were added to the extracellular solution. The peptide FRRFamide was synthesized by Research Genetics (Huntsville, Ala.).
# [3] = test system: proton-gated currents in cultured rat DRG neurons; assay: Whole-cell patch-clamp of proton-gated currents in cultured DRG neurons
# Protocol: Rat DRG neurons were cultured from Norway rats as described in Benson et al. (1999)(Benson, C. J., Eckert, S. P., and McCleskey, E. W. (1999). Acid-evoked currents in cardiac sensory neurons: A possible mediator of myocardial ischemic sensation. Circulation Research 84, 921-928). Cells were allowed to incubate overnight at room temperature and studies were done 1 to 2 days after isolation.
# as §1, with “During whole-cell patch-clamping of DRG neurons and transfected HEK-293T cells, the cells were bathed with an extracellular solution that contained, in mM: 128 NaCl, 5 MgCl2, 1.8 CaCl2, 5.4 KCl, 5.55 glucose, 20 HEPES, pH 7.5 or 5. The” for “The”
# Whole-cell patch-clamp recordings were used to investigate the effect of FMRFamide on proton-gated currents in cultured rat DRG neurons. As previously reported (Akaike, N., and Ueno, S. (1994). Proton-induced current in neuronal cells. Prog Neurobiol 43, 73-83), acidification to pH 5 produced rapidly activating and inactivating currents in the sensory neurons of the DRG (FIGS. 1A-D). […] The presence of the neuropeptide immediately before acidification also altered inactivation (FIGS. 1C, 1D).
# ASICβ = target: T2, ASICβ (Rattus norvegicus, UniProt P55926); assay: Two-electrode voltage-clamp of Xenopus oocytes expressing ASICβ; conditions: pH 5, peptide 50 μM
# T2 construct: expressed in transfected cells; host or cells: Xenopus laevis oocytes (nuclear injection of pMT3 plasmid)
# T2 sequence (P55926 1-559 isoform P55926-3): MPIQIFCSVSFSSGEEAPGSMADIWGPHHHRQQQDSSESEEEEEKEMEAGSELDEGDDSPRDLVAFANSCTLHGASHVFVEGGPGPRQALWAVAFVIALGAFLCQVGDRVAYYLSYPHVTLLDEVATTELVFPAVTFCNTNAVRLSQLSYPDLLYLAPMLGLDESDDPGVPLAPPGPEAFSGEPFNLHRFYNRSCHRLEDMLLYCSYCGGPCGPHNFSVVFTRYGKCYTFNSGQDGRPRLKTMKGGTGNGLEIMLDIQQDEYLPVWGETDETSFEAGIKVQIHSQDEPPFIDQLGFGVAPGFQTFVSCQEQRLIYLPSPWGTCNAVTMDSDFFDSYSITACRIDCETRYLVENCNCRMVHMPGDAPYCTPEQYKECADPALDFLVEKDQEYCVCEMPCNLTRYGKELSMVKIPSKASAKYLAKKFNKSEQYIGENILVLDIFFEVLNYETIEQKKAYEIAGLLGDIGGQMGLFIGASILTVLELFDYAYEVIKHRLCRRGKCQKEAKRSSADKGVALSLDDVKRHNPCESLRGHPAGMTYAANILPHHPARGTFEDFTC
# Excerpt: as §2, with “expression. The validity of the constructs was confirmed by DNA sequencing.” for “expression.”
# as §3
# (§4) Whole-cell currents in oocytes were measured using a two-electrode voltage-clamp as previously described (Adams, et al. (1998)). […]
# DRASIC = target: T3, DRASIC (Mus musculus, UniProt Q6X1Y6); assay: Two-electrode voltage-clamp of Xenopus oocytes expressing DRASIC; conditions: neuropeptide FF 50 μM added prior to acidification
# T3 construct: expressed in transfected cells; host or cells: Xenopus laevis oocytes (nuclear injection of pMT3 plasmid)
# T3 sequence (Q6X1Y6 1-530): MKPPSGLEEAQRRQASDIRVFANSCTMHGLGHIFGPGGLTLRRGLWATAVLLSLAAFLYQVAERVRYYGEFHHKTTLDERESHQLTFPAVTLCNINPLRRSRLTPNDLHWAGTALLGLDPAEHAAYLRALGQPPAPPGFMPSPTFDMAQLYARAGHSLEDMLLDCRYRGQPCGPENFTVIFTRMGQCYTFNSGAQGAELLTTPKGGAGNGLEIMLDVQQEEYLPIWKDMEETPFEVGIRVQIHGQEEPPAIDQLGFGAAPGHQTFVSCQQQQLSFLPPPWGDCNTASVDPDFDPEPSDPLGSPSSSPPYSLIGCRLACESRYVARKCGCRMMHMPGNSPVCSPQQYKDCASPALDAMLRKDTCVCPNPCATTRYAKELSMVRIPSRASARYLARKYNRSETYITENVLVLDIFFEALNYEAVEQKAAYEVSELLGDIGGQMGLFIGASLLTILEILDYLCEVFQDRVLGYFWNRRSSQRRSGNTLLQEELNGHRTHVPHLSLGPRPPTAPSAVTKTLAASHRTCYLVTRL
# Excerpt: as §2, with “expression. The validity of the constructs was confirmed by DNA sequencing.” for “expression.”
# as §3, §4
# BNC1 = target: T4, BNC1 (Homo sapiens, UniProt Q16515); assay: Two-electrode voltage-clamp of Xenopus oocytes expressing BNC1; conditions: pH 5
# T4 construct: expressed in transfected cells; host or cells: Xenopus laevis oocytes (nuclear injection of pMT3 plasmid)
# T4 sequence (Q16515 1-512): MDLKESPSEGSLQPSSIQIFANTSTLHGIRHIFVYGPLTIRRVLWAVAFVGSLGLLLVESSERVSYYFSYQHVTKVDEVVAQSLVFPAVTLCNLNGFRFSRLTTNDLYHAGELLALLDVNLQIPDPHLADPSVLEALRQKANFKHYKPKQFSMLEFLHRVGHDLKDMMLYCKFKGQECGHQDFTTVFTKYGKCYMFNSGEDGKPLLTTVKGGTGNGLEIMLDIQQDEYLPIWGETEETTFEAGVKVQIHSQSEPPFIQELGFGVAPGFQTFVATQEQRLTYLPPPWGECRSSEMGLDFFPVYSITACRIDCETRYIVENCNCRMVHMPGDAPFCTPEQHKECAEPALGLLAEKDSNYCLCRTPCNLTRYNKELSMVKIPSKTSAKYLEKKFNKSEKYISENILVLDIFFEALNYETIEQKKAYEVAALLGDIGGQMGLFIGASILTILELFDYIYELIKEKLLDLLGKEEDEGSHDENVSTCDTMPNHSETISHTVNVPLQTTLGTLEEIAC
# Excerpt: as §2, with “expression. The validity of the constructs was confirmed by DNA sequencing.” for “expression.”
# as §3, §4
molecule,measurement,setting,value
N=C(N)NC(=O)c1nc(Cl)c(N)nc1N [amiloride],effect of amiloride on FMRFamide-induced sustained current,ASICα [1],inhibited
same,effect of amiloride on FMRFamide-induced sustained current,"ASICα [2]; amiloride 1 mM, FMRFamide 50 μM, pH 5",inhibited
CN1CC[C@]23c4c5ccc(O)c4O[C@H]2[C@@H](O)C=C[C@H]3[C@H]1C5 [morphine],mimicking of the FMRFamide effect on proton-gated current,[3]; morphine 50 μM,did not mimic it
same,"effect on H+-gated ASICα current (inactivation, sustained current)",ASICα [2],neither morphine nor naloxone altered ASICα current
C=CCN1CC[C@]23c4c5ccc(O)c4O[C@H]2C(=O)CC[C@@]3(O)[C@H]1C5 [naloxone],block of the FMRFamide effect on proton-gated current,[3]; naloxone 100 μM,did not block the effect of FMRFamide
same,effect of naloxone on FMRFamide-induced ASICα sustained current,"ASICα [2]; naloxone 500 μM applied before FMRFamide 50 μM, pH 5",neither morphine nor naloxone altered ASICα current
"A18Famide: mammalian FMRFamide-like peptide, terminates with the sequence PQRFamide (AGEGLNSQFWSLAAPQRF-NH2; UniProt O15130 93-110, looked up)","effect on H+-gated ASICα current (inactivation, sustained current)",ASICα [2],Neither A18Famide nor MERF altered ASICα current
Phe-Leu-Phe-Gln-Pro-Gln-Arg-Phe-amide [neuropeptide FF],size of effects compared with FMRFamide,"[3]; pH 5, 50 μM each",smaller than those generated by FMRFamide
same,effect on inactivation of proton-gated current and sustained current,"[3]; pH 5, FMRFamide 50-100 μM, neuropeptide FF 50 μM",altered inactivation of proton-gated DRF currents
same,current generated by agent added alone,[3]; without acidification,generated no current on its own
same,"effect on H+-gated ASICβ current (inactivation, sustained current)",ASICβ,appeared unaffected
same,effect on inactivation of H+-gated DRASIC currents,DRASIC,slowed the inactivation of H^+-gated DRASIC currents
same,effect on acid-gated BNC1 currents,BNC1,appeared unaffected
same,"effect on H+-gated ASICα current (inactivation, sustained current)",ASICα [2],produced only minor effects on inactivation rate but no sustained current
same,"effect on H+-gated ASICα current (inactivation, sustained current)",ASICα [2]; listed as Neuropeptide FF,"subtle effects on ASICα currents, slowing inactivation but not generating appreciable sustained current"
"metenkephalin-Arg-Phe (YGGFMRF; Met-enkephalin-Arg-Phe; UniProt P01210 261-267, looked up) [MERF]","effect on H+-gated ASICα current (inactivation, sustained current)",ASICα [2],Neither A18Famide nor MERF altered ASICα current
